Experimental data: PMC11313193, “Which Constituents Determine the Antioxidant Activity and Cytotoxicity of Garlic? Role of Organosulfur Compounds and Phenolics” (International Journal of Molecular Sciences, 2024)
Read-outs that look alike come from different tables or passages of the source.

Columns and labels:
[1] = test system: MKN-28 gastric cancer cell line; design: method as in PMID 2298289; conditions: range given for four gastric cancer cell lines; read-out: IC50 MKN-28 gastric cancer cells; cited from earlier work
[2] = test system: NUGC-2 gastric cancer cell line; design: method as in PMID 2298289; conditions: range given for four gastric cancer cell lines; read-out: IC50 NUGC-2 gastric cancer cells; cited from earlier work
MRC-5 fibroblasts = assay: Cytotoxicity (Neutral Red), MRC-5 fibroblasts; type: cell-based, human
Description: (§1) The PEO1 cells, SKOV-3 cells, and MRC-5 cells were grown at 37 °C and 5% CO2 in RPMI + GlutaMAX medium, McCoy’s 5A medium, and the DMEM + GlutaMAX medium, respectively. The media were supplemented with 10% heat-inactivated fetal calf serum and penicillin/streptomycin. The cell viability was evaluated using the Trypan Blue exclusion test.
(§2) In the cytotoxicity experiments, cells were grown in wells of sterile 96-well plates. The seeding density was 1 × 10^4 for SKOV-3 and MRC-5 cells and 1.5 × 10^4 for PEO1 cells. The cells were allowed to grow in the incubator for 24 h. Then, the medium was removed and new medium with an examined compound was added. The stock solutions of the compounds studied diluted with the appropriate cell medium were filtered before the addition to the cells using 0.22 µm filters. No more than 0.02% of DMSO was present in the media, and it had no discernible impact on the treated cells. Cells not exposed to any compound served as a control. After another 24 h incubation, the medium was gently aspirated, and the wells were added with 2% sterile Neutral Red solution (100 µL). The plates were then incubated (37 °C, 5% CO2) for one hour. The Neutral Red solution was aspirated, and the wells were washed two times with warm (37 °C) PBS. Subsequently, 100 µL of a permeabilization mixture (water/ethanol/glacial acetic acid, 50/49/1, v/v/v) was introduced to each well. The plates were shaken at 700 rpm for 20 min and absorbance was read at a wavelength of 540 nm against 620 nm.

[3] = test system: breast cancer HCC1937 cells; design: method as in PMID 16619521; conditions: 100 μM; cited from earlier work
[4] = test system: colorectal cancer SW-620 cells; design: method as in PMID 25829782; conditions: cited from earlier work
[5] = ABTS^● decolorization assay; conditions: 30 min incubation at room temperature, absorbance at 734 nm
Description: A modification of the ABTS^● decolorization assay was employed. Briefly, various volumes of solutions of the studied compounds were introduced to wells of a 96-well microplate, each prefilled 200 μL of ABTS^● solution. […] The drop in absorbance after 30 min incubation at room temperature was read as a measure of the antioxidant activity.
(§3) All assays were standardized with respect to Trolox. The antioxidant activity was calculated in each case as a ratio of the slope of the dependence of absorbance change on the concentration of a studied compound to the slope of the dependence of absorbance change of standard samples concerning Trolox on the concentration of Trolox. Antioxidant activities were expressed in moles of Trolox equivalents (TE)/mol of a studied compound, as described previously.

[6] = test system: PEO1 ovarian cancer cells; assay: Cytotoxicity (Neutral Red), PEO1 cells; type: cell-based, human; conditions: for Concentration at which viability of PEO1 cells was lowered: p < 0.05; for IC50: Homo sapiens, read-out: IC50 PEO1
Description: as §1, §2

[7] = test system: SKOV-3 ovarian cancer cells; assay: Cytotoxicity (Neutral Red), SKOV-3 cells; type: cell-based, human; conditions: for IC50: Homo sapiens, read-out: IC50 SKOV-3
Description: as §1, §2

MCF-7 cells = test system: MCF-7 cells; design: method as in PMID 24223637; conditions: 40 μg/mL (132 μM); cited from earlier work
[8] = test system: HGC-27 gastric cancer cell line; design: method as in PMID 2298289; conditions: range given for four gastric cancer cell lines; read-out: IC50 HGC-27 gastric cancer cells; cited from earlier work
[9] = Ferric reducing antioxidant power (FRAP) assay; conditions: 30 min at ambient temperature, pH 3.6, absorbance at 593 nm
Description: The method proposed by Benzie and Strain [91] was employed with a slight modification. Briefly, increasing volumes of solutions of the studied compounds were added to wells of a 96-well microplate prefilled with 200 μL of the working solution composed of 0.3 M acetate buffer, pH 3.6 (10 volumes), 10 mM 2,4,6-tris(2-pyridyl)-s-triazine (TPTZ), in 40 mM HCl (1 volume) and 20 mM FeCl3 (1 volume), was prepared immediately before use. After 30 min incubation at ambient temperature and the absorbance of the Fe^2+-TPTZ complex was read at 593 nm.
as §3

[10] = test system: A549 human adenocarcinomic alveolar basal epithelial cells; design: method as in PMID 14688022; conditions: cited from earlier work
[11] = DPPH^● decolorization assay; conditions: 30 min at ambient temperature in the dark, absorbance at 517 nm
Description: The assay was performed as described in a previous article. Briefly, increasing volumes of solutions of the studied compounds were introduced to wells of a 96-well microplate, each with 200 μL of 0.3 mM DPPH^● solution in methanol. The reaction was allowed to proceed for 30 min at ambient temperature in the dark, and absorbance at 517 nm was read. The absorbance decrease was a measure of the antioxidant activity.
as §3

[12] = test system: MKN-7 gastric cancer cell line; design: method as in PMID 2298289; conditions: range given for four gastric cancer cell lines; read-out: IC50 MKN-7 gastric cancer cells; cited from earlier work
[13] = test system: colorectal cancer CACO-2 cells; design: method as in PMID 25829782; conditions: cited from earlier work
[14] = test system: cervical cancer HeLa cells; design: method as in PMID 21199742; conditions: after 24 h exposure; read-out: Concentration decreasing the viability of HeLa cells by 50%; cited from earlier work
[15] = test system: HT-1080 fibrosarcoma cells; design: method as in PMID 21116690; conditions: read-out: Concentration decreasing the viability of HT-1080 cells (by 50%); cited from earlier work
MDA-MB-231 cells = test system: MDA-MB-231 cells; design: method as in PMID 29048370; conditions: read-out: Concentration decreasing the viability of MDA-MB-231 cells (by 50%); cited from earlier work

O=c1c(O)c(-c2ccc(O)c(O)c2)oc2cc(O)cc(O)c12 [Quercetin]
IC50 [1]: 32 to 55 µM | IC50 [2]: 32 to 55 µM | Concentration range with no significant decrease in viability of MRC-5 cells (MRC-5 fibroblasts; 24 h exposure): up to 200 µM | IC50 (MRC-5 fibroblasts; Homo sapiens, MRC5, 24 h, read-out: IC50 MRC-5): 111 µM | Viability of HCC1937 cells (diminished to) [3]: ca. 40% | IC50 [4]: 20 µM | Antioxidant activity, ABTS^● Decolorization [5]: 1.138 ± 0.029 mol Trolox equivalents (TE)/mol compound | Concentration at which viability of PEO1 cells was lowered ([6]; 24 h exposure): 75 to 200 µM | IC50 ([6]; PEO1, 24 h): 100 µM | Concentration at which viability of SKOV-3 cells was lowered ([7]; 24 h exposure, p < 0.05): 75 to 200 µM | IC50 ([7]; SK-OV-3, 24 h): 272 µM | Viability of MCF-7 cells (diminished to) (MCF-7 cells): ca. 70% | IC50 [8]: 32 to 55 µM | Antioxidant activity, FRAP [9]: 1.350 ± 0.201 mol Trolox equivalents (TE)/mol compound | IC50 [10]: ~40 µM | Antioxidant activity, DPPH^● Decolorization [11]: 0.384 ± 0.040 mol Trolox equivalents (TE)/mol compound | IC50 [12]: 32 to 55 µM | IC50 [13]: 35 µM

O=C(O)/C=C/c1ccc(O)c(O)c1 [Caffeic acid, caffeic acid]
IC50 [14]: ~2 mM | Concentration at which viability of MRC-5 cells was lowered (MRC-5 fibroblasts; 24 h exposure, p < 0.05): 1000 µM | Antioxidant activity, ABTS^● Decolorization [5]: 0.771 ± 0.066 mol Trolox equivalents (TE)/mol compound | Concentration at which viability of PEO1 cells was lowered ([6]; 24 h exposure): 300 to 1000 µM | IC50 ([6]; PEO1, 24 h exposure, Neutral Red): 245 µM | IC50 [15]: 30 µM | Concentration range with no significant decrease in viability of SKOV-3 cells ([7]; 24 h exposure): up to 1000 µM | IC50 ([7]; SK-OV-3, 24 h exposure, Neutral Red): 1320 µM | IC50 (MDA-MB-231 cells): 151 µM | Antioxidant activity, FRAP [9]: 0.019 ± 0.002 mol Trolox equivalents (TE)/mol compound | Antioxidant activity, DPPH^● Decolorization [11]: 0.001 ± 0.006 mol Trolox equivalents (TE)/mol compound
